{"source": "patent US11160770B2", "about": "“Compounds, compositions and methods for treating oxidative DNA damage disorders” (Indiana University Research and Technology Corporation, priority 2011, dated 2021)", "key": {"[1]": {"test_system": "sensory neurons", "assay": "Capsaicin-evoked iCGRP release from sensory neurons after ionizing radiation", "assay_type": "cell-based, rat", "protocol": "EXAMPLE. Cell Cultures. Neuronal cultures were prepared from adult male (150-175 g) Sprague-Dawley rats (Harlan, Indianapolis, Ind.) as described in the published literature. Briefly, hippocampal cells were dissociated using papain and mechanical agitation and separated by gradient centrifugation. The pellet of cells from a discontinuous gradient of Optiprep in L-15 media was washed then resuspended in 1 mL of growth media consisting of Neurobasal Medium supplemented with 0.5 mM L-glutamine, 2% B-27 Supplement minus AO, 50 mg/mL Penicillin-Streptomycin, and 5 ng/mL of Basic Fibroblast Growth Factor (BFGF). Approximately 60,000 cells were plated onto poly-D-lysine and laminin coated plates and grown for 6-14 days in 5% CO2 at 37° C. Growth medium was changed every other day. For sensory neuronal culture, cells were dissociated using collagenase and mechanical dissociation. Approximately 30,000 DRG cells were plated into each well of 12 well culture plates or onto Lab-Tek chamber slides all precoated with poly-D-lysine and laminin. […]\nFor release studies, the sensory neuronal cultures were washed once with HEPES buffer consisting of (in mM) 25 HEPES, 135 NaCl, 3.5 KCl, 2.5 CaCl2, 1 MgCl2, 3.3 D-glucose, and 0.1% bovine serum albumin, pH 7.4 and maintained at 37° C. […] After each incubation, the buffer was removed and the amount of CGRP in each sample was measured using radioimmunoassay as previously described. […] Total content was calculated by adding the total amount released in all incubations to the amount measured in the cells. The release data is calculated as fmol released/well/[…] or as a % of the total peptide content in the cells. […]\nEXAMPLE. […] For these studies, the initially determined effects of exposing neuronal cultures to single or multiple doses of 10 Gy of IR on the content and release of iCGRP. 24 h after exposing sensory neurons to either one or two once-daily doses of 10 Gy, there was no significant effect on resting or capsaicin-evoked iCGRP release (as measured in fmol released/well of cells/10 min) or on the total content of CGRP in the cultures. […]"}, "[2]": {"test_system": "DRG cells", "assay": "CGRP release from DRG cells following cisplatin treatment", "assay_type": "cell-based, rat", "details": "E3330 20 μM pretreatment 3 days, then cisplatin 10 μM 24 hours", "protocol": "EXAMPLE. CGRP. Release studies were performed on cells. Briefly, neuronal cultures were washed once with HEPES buffer consisting of 25 HEPES, 135 NaCl, 3.5 KCl, 2.5 CaCl2, 1 MgCl2, 3.3 d-glucose (each in mmol/L), and 0.1% bovine serum albumin (pH 7.4), maintained at 37° C., and then incubated for successive 10-min intervals with 0.4 mL of the same buffer in the absence or presence of drugs. Basal or resting release was determined by exposing the cells to HEPES buffer alone, whereas stimulated release was determined by exposing the cultures to 30 nmol/L capsaicin. Cells then were reexposed to HEPES buffer without drugs for one or two 10-min incubations to reestablish resting release. During incubations, the cells were maintained in at 37° C. After each incubation, the buffer was removed to measure the amount of CGRP using RIAs. […] Total content is determined by adding the total amount released in all incubations to the amount remaining in the cells. The release data is calculated as a percentage of the total peptide content in the cells. Because CGRP was measured by RIA, results are expressed as CGRP-like immunoreactivity (iCGRP). […]\nEXAMPLE. […] Basal levels of CGRP without induction and cumulative total basal are both monitored, indicating correct functioning of the assay."}}, "data": [{"smiles": "CCCCCCCCC/C(=C\\C1=C(C)C(=O)C(OC)=C(OC)C1=O)C(=O)O", "note": "[Example 28]", "values": [{"measurement": "capsaicin-evoked iCGRP release after radiation", "setting": "[1]; 10 μM or 20 μM E3330, 3 doses of 10 Gy, 30 nM capsaicin, 24 h after last dose", "value": "completely blocked the effects of radiation on peptide release"}, {"measurement": "capsaicin-evoked iCGRP release in control cells", "setting": "[1]; 10 μM or 20 μM E3330, no radiation, 30 nM capsaicin", "value": "did not alter capsaicin-evoked release in control cells"}, {"measurement": "evoked release of iCGRP", "setting": "[1]; 20 μM E3330, APE1 knock-down and 266-177 overexpression, 10 Gy per day for three days", "value": "5.9±0.5 % of total content"}, {"measurement": "total content CGRP", "setting": "[2]; FIG. 3(B)", "value": "no statistical significance difference"}, {"measurement": "capsaicin-induced CGRP release from DRG cells after cisplatin", "setting": "[2]; capsaicin 30 nM", "value": "recovery of CGRP release"}]}]}
